Legend:
[1] = system: MV4-11; assay: Cytotoxicity against human MV4-11 cells at 1 uM after 72 hrs by MTT assay; assay type: cell-based; conditions: mv4-11, 72 h
[2] = target: Tyrosine-protein kinase ABL1 (Homo sapiens, UniProt P00519); assay: Binding affinity to wild-type human phosphorylated ABL1 (S229 to K512 residues) expressed in mammalian expression system after 60 mins by Kinomescan method
[3] = target: T1, Tyrosine-protein kinase ABL1 (Homo sapiens, UniProt P00519, H396P); assay: Binding affinity to human phosphorylated ABL1 H396P mutant (S229 to K512 residues) expressed in mammalian expression system after 60 mins by Kinomescan method
[4] = system: MV4-11; assay: Induction of apoptosis in human MV4-11 cells assessed as early apoptotic cells at 0.5 uM after 24 hrs by Annexin V-FITC/propidium iodide staining based flow cytometric analysis (reference value: 3.39%); assay type: functional
[5] = target: Serine/threonine-protein kinase Nek2 (Homo sapiens) (UniProt P51955); assay: Inhibition of human NEK2 assessed as residual activity at 10 uM using MBP as substrate preincubated for 20 mins followed by [gamma-33P]-ATP addition and measured after 120 mins by Hotspot assay relative to control
[6] = target: Tyrosine-protein kinase ABL1 (Homo sapiens, UniProt P00519, T315I); assay: Binding affinity to human phosphorylated ABL1 T315I mutant (S229 to K512 residues) expressed in mammalian expression system after 60 mins by Kinomescan method
[7] = target: Mitogen-activated protein kinase kinase kinase 1 (Homo sapiens) (UniProt Q13233); assay: Inhibition of human MEKK1 assessed as residual activity at 10 uM using MBP as substrate preincubated for 20 mins followed by [gamma-33P]-ATP addition and measured after 120 mins by Hotspot assay relative to control
[8] = target: ALK tyrosine kinase receptor (Homo sapiens, UniProt Q9UM73); assay: Inhibition of human ALK using poly[Glu:Tyr] (4:1) as substrate preincubated for 20 mins followed by [gamma-33P]-ATP addition and measured after 120 mins by Hotspot assay
[9] = system: MV4-11; assay: Induction of apoptosis in human MV4-11 cells assessed as late apoptotic cells at 0.1 uM after 24 hrs by Annexin V-FITC/propidium iodide staining based flow cytometric analysis (reference value: 1.42%); assay type: functional
[10] = system: MV4-11; assay: Induction of apoptosis in human MV4-11 cells assessed as early apoptotic cells at 0.05 uM after 24 hrs by Annexin V-FITC/propidium iodide staining based flow cytometric analysis (reference value: 3.39%); assay type: functional
[11] = system: MV4-11; assay: Induction of apoptosis in human MV4-11 cells assessed as necrotic cells at 0.5 uM after 24 hrs by Annexin V-FITC/propidium iodide staining based flow cytometric analysis (reference value: 0%); assay type: functional
[12] = target: CDK6/cyclin D1 (Homo sapiens) (UniProt P24385+Q00534); assay: Inhibition of human CDK6/cyclin-D1 assessed as residual activity at 10 uM using RB protein as substrate preincubated for 20 mins followed by [gamma-33P]-ATP addition and measured after 120 mins by Hotspot assay relative to control; assay type: protein-complex assay
[13] = target: Vascular endothelial growth factor receptor 2 (Homo sapiens, UniProt P35968); assay: Inhibition of human KDR assessed as residual activity at 10 uM using poly[Glu:Tyr] (4:1) as substrate preincubated for 20 mins followed by [gamma-33P]-ATP addition and measured after 120 mins by Hotspot assay relative to control
[14] = target: T1, Tyrosine-protein kinase ABL1; assay: Binding affinity to human non-phosphorylated ABL1 H396P mutant (S229 to K512 residues) expressed in mammalian expression system after 60 mins by Kinomescan method
[15] = system: MV4-11; assay: Induction of apoptosis in human MV4-11 cells assessed as necrotic cells at 0.02 uM after 24 hrs by Annexin V-FITC/propidium iodide staining based flow cytometric analysis (reference value: 0%); assay type: functional
[16] = target: Serine/threonine-protein kinase Chk1 (Homo sapiens) (UniProt O14757); assay: Inhibition of human CHK1 assessed as residual activity at 10 uM using KKKVSRSGLYRSPSMPENLNRPR as substrate preincubated for 20 mins followed by [gamma-33P]-ATP addition and measured after 120 mins by Hotspot assay relative to control
[17] = system: MV4-11; assay: Induction of apoptosis in human MV4-11 cells assessed as early apoptotic cells at 0.02 uM after 24 hrs by Annexin V-FITC/propidium iodide staining based flow cytometric analysis (reference value: 3.39%); assay type: functional
[18] = target: Epidermal growth factor receptor (Homo sapiens) (UniProt P00533); assay: Inhibition of human EGFR assessed as residual activity at 10 uM using poly[Glu:Tyr] (4:1) as substrate preincubated for 20 mins followed by [gamma-33P]-ATP addition and measured after 120 mins by Hotspot assay relative to control
[19] = target: Glycogen synthase kinase-3 beta (Homo sapiens) (UniProt P49841); assay: Inhibition of human GSK3B assessed as residual activity at 10 uM using YRRAAVPPSPSLSRHSSPHQ(pS)EDEEE as substrate preincubated for 20 mins followed by [gamma-33P]-ATP addition and measured after 120 mins by Hotspot assay relative to control
[20] = system: MV4-11; assay: Induction of apoptosis in human MV4-11 cells assessed as early apoptotic cells at 1 uM after 24 hrs by Annexin V-FITC/propidium iodide staining based flow cytometric analysis (reference value: 3.39%); assay type: functional
[21] = target: CDC7/DBF4 (Cell division cycle 7-related protein kinase/Activator of S phase kinase) (Homo sapiens) (UniProt Q9UBU7+O00311); assay: Inhibition of human CDC7/DBF4 assessed as residual activity at 10 uM using KTFCGTPEYLAPEVRREPRILSEEEQEMFRDFDYIADWC as substrate preincubated for 20 mins followed by [gamma-33P]-ATP addition and measured after 120 mins by Hotspot assay relative to control; assay type: protein-complex assay
[22] = target: Mast/stem cell growth factor receptor Kit (Homo sapiens, UniProt P10721); assay: Binding affinity to wild-type human partial length autoinhibited KIT (Y545 to D952 residues) expressed in mammalian expression system after 60 mins by Kinomescan method
[23] = system: MV4-11; assay: Induction of apoptosis in human MV4-11 cells assessed as necrotic cells at 0.2 uM after 24 hrs by Annexin V-FITC/propidium iodide staining based flow cytometric analysis (reference value: 0%); assay type: functional
[24] = target: Platelet-derived growth factor receptor alpha (Homo sapiens, UniProt P16234); assay: Inhibition of human PDGFRalpha assessed as residual activity at 10 uM using poly[Glu:Tyr] (4:1) as substrate preincubated for 20 mins followed by [gamma-33P]-ATP addition and measured after 120 mins by Hotspot assay relative to control
[25] = system: HuT78; assay: Growth inhibition of human HUT78 cells at 10 uM after 72 hrs by CellTiter-Glo assay relative to control; assay type: functional; conditions: HuT78, 72 h, read-out: GI
[26] = target: Serine/threonine-protein kinase Nek2 (Homo sapiens, UniProt P51955); assay: Inhibition of human NEK2 using MBP as substrate preincubated for 20 mins followed by [gamma-33P]-ATP addition and measured after 120 mins by Hotspot assay
[27] = system: MOLM-13; assay: Growth inhibition of human MOLM13 cells harboring FLT3 ITD mutant at 10 uM after 72 hrs by CellTiter-Glo assay relative to control; assay type: functional; conditions: MOLM-13, 72 h, read-out: GI

Vascular endothelial growth factor receptor 2, sequence (P35968 whole entry, the tested form may be a part): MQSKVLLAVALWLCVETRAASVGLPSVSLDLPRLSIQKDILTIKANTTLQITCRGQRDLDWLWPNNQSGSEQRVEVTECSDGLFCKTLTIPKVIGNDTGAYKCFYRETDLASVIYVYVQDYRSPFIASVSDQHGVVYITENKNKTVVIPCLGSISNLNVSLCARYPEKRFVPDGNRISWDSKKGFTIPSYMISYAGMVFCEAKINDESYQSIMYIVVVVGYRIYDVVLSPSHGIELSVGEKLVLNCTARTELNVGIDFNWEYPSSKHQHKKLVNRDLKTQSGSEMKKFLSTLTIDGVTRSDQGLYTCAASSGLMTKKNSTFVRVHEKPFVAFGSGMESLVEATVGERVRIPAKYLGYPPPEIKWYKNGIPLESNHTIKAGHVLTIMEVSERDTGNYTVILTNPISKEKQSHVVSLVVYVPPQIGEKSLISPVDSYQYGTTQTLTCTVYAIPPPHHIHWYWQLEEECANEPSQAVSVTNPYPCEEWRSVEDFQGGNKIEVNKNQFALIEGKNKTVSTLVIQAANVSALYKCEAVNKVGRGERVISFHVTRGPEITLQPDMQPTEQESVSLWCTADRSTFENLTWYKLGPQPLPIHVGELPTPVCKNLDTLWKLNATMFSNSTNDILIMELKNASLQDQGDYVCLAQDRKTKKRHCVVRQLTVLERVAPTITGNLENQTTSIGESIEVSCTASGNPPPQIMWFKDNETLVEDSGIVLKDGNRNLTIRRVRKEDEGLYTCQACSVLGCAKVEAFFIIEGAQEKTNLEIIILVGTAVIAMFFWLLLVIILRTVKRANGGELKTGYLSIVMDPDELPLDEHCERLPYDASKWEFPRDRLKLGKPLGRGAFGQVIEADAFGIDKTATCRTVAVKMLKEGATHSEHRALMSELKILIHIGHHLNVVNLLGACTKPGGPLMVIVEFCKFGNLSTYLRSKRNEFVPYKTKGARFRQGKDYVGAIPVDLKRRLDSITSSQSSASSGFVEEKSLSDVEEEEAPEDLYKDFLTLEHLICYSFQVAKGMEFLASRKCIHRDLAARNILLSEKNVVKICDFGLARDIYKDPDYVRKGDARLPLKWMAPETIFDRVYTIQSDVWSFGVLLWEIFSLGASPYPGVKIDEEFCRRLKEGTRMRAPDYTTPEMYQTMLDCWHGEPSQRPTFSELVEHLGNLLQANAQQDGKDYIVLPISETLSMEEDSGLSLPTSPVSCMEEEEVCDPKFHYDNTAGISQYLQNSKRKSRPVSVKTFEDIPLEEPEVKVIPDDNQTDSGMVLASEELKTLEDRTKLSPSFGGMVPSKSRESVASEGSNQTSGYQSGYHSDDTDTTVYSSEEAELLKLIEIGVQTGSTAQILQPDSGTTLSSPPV
Mitogen-activated protein kinase kinase kinase 1 (Homo sapiens), sequence (Q13233 whole entry): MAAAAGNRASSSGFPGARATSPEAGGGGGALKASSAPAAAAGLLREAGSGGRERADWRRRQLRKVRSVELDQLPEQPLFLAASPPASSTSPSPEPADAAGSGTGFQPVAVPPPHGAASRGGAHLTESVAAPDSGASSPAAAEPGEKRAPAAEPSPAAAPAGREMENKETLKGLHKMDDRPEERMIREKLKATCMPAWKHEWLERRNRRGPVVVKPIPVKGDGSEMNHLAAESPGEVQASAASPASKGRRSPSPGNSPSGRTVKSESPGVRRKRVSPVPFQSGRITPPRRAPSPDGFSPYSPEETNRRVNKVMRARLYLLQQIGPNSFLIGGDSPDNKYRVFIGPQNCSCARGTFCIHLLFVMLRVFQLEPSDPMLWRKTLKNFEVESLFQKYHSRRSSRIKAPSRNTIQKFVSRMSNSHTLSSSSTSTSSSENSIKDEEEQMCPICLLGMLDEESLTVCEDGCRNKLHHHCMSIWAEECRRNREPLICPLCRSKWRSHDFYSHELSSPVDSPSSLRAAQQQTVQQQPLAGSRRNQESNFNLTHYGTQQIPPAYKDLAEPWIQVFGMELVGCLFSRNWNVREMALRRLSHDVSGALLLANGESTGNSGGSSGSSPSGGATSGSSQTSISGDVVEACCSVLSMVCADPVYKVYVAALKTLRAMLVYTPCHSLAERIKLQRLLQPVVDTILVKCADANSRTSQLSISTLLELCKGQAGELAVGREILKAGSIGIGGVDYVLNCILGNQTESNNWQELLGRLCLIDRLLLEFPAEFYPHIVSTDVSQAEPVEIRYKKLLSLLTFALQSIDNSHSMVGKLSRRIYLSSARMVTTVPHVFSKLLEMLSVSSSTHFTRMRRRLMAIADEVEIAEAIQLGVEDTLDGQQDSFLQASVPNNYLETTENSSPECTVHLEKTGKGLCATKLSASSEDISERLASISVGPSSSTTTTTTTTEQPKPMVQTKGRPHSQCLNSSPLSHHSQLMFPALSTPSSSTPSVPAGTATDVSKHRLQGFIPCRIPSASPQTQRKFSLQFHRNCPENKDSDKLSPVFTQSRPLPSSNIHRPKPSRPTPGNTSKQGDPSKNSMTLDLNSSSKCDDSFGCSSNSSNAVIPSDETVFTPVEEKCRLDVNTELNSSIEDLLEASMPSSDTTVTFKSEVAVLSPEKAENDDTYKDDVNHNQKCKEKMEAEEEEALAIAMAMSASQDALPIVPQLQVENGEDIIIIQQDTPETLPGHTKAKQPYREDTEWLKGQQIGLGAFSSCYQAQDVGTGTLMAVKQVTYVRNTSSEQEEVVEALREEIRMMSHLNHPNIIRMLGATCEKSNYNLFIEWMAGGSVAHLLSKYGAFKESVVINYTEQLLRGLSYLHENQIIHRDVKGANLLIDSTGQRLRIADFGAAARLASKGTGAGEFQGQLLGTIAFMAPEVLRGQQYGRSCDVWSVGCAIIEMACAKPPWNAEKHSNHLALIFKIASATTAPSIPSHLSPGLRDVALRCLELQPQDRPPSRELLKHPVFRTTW
CDC7/DBF4 (Cell division cycle 7-related protein kinase/Activator of S phase kinase) (Homo sapiens), sequence (O00311 whole entry, looked up, the tested form may be a part): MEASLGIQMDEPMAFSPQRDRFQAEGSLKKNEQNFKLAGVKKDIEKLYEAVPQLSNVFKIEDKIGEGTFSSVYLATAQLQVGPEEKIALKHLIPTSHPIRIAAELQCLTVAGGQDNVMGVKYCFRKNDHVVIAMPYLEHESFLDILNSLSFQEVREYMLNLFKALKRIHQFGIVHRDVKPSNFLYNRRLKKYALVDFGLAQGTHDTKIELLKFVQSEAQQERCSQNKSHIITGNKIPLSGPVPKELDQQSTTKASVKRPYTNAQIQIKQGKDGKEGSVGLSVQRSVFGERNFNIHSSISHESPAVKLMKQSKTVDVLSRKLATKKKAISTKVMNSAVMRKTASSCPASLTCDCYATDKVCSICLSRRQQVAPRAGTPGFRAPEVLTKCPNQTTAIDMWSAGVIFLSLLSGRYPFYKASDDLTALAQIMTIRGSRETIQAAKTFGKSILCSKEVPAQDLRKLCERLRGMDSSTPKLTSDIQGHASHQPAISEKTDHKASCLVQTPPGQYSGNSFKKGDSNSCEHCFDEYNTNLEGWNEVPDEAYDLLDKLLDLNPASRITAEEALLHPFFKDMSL
CDC7/DBF4 (Cell division cycle 7-related protein kinase/Activator of S phase kinase) (Homo sapiens), sequence (Q9UBU7 whole entry, looked up, the tested form may be a part): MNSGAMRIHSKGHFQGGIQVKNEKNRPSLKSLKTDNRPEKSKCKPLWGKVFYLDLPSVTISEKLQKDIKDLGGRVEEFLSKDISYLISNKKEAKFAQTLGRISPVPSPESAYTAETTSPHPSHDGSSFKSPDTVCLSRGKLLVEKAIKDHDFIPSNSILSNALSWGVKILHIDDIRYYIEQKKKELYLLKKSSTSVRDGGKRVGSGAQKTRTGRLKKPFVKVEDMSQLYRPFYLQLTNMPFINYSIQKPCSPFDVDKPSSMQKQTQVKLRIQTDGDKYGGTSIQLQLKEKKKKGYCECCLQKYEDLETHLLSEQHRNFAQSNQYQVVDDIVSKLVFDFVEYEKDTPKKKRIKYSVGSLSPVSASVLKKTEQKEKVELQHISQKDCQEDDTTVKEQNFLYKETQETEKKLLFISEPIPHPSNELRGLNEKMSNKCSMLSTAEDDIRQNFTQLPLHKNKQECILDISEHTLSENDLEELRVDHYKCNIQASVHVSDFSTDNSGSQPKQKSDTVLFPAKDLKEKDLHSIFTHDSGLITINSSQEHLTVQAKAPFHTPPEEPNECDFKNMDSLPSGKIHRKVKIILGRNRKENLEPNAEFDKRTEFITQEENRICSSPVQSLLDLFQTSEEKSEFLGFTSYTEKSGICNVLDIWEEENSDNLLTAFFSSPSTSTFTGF
Glycogen synthase kinase-3 beta (Homo sapiens), sequence (P49841 whole entry, looked up): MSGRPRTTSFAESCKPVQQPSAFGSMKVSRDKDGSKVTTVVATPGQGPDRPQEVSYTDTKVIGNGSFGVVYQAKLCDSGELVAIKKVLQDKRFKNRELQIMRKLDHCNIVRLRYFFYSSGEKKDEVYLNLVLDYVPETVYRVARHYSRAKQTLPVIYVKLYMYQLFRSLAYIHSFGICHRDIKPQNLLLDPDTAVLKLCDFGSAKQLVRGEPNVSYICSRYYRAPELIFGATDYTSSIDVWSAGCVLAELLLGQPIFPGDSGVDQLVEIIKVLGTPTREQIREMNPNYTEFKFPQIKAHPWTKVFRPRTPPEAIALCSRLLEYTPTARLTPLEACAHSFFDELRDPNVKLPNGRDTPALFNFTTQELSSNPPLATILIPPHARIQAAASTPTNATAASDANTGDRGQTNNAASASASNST
Serine/threonine-protein kinase Nek2 (Homo sapiens), sequence (P51955 whole entry, the tested form may be a part): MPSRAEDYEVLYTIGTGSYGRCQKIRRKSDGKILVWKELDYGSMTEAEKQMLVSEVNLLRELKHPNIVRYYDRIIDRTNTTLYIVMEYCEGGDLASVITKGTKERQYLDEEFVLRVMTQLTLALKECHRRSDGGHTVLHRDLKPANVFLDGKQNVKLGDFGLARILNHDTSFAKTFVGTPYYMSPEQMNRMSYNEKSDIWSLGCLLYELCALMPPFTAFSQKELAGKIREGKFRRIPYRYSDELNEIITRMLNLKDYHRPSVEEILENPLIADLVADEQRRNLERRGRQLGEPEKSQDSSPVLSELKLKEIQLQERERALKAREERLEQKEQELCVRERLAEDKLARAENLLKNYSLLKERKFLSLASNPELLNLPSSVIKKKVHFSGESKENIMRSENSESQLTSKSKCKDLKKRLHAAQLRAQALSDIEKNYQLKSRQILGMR
Serine/threonine-protein kinase Nek2, sequence (P51955 whole entry): as the sequence (P51955 whole entry, the tested form may be a part) above

CN1CCC(Nc2ccc(C(=O)Nc3cc(-c4cc(C#N)cs4)n[nH]3)cc2)CC1
Activity [1]: Non-Toxic | Kd [2]: 0.52 µM | Kd [3]: 0.39 µM | Activity [4]: 28.65% | Activity [5]: 11% | Kd [6]: 0.5 µM | Activity [7]: 66.2% | IC50 [8]: 5.14 µM | Activity [9]: 15.97% | Activity [10]: 21.04% | Activity [11]: 4.89% | Activity [12]: 20.1% | Activity [13]: 34% | Kd [14]: 0.28 µM | Activity [15]: 3.01% | Activity [16]: 11.8% | Activity [17]: 17.09% | Activity [18]: 65.5% | Activity [19]: 72.8% | Activity [20]: 31.43% | Activity [21]: 101% | Kd [22]: 0.072 µM | Activity [23]: 4.1% | Activity [24]: 30.2% | inhibition of growth at 10 µM [25]: 3.9% | IC50 [26]: 2.09 µM | inhibition of growth at 10 µM [27]: 92.1%

Reference: ChEMBL document CHEMBL4330071 (Eur J Med Chem, 2019)
